pIC50: −log10 of the molar value. Like-named read-outs stand apart in the source and are kept apart here.
Key:
[1] = target: T1, EGFR (d746-750 C797S) (Homo sapiens, UniProt P00533, C797S/DEL746-750); test: Inhibition of EGFR (d746-750 C797S) biochemical enzymatic activity (HTRF); details: EGFR Del19-C797S, 1 mM ATP, 1 h, room temperature, read-out: IC50 (nM) @Del19-C797S
T1 construct: purchased signalchem
Summary of the method: (§1)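 Time-resolved FRET assay of EGFR substrate phosphorylation. Conditions: 1 μM TK substrate-biotin, 1 mM ATP, Mg/Mn buffer, 1 h at RT. IC50 from 4-parameter curve fit.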

[2] = tested on: PC-9; test: Cell proliferation assay, PC-9 cells (CellTiter-Glo, 72 hours); type: cell-based; details: PC9 cells, CellTiter-Glo, read-out: PC9 GI50
Summary of the method: (§2)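 In RPMI1640 medium (PC-9 with 10% FBS), each cell line was seeded at its own density: Ba/F3 5000 and PC-9 500 per well. A compound series was added the next day, with a time-zero viability plate read in parallel. Percent proliferation was subtracted for G0 and referenced to DMSO, and GI50 was derived by curve fitting.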

[3] = tested on: A-431; test: Cell proliferation GI50, A-431 cells (Table 6); type: cell-based
[4] = target: T2, EGFR wild type (Homo sapiens, UniProt P00533); test: Inhibition of EGFR wild type biochemical enzymatic activity (HTRF); details: EGFR WT, 1 mM ATP, 1 h, room temperature, read-out: IC50 (nM) @WT
T2 construct: purchased Carna Bio
Summary of the method: as §1

[5] = target: T3, EGFR[T790M/C797S/L858R] (Homo sapiens, UniProt P00533, C797S/L858R/T790M); test: Inhibition of EGFR[T790M/C797S/L858R] biochemical enzymatic activity (HTRF); details: EGFR T790M-C797S-L858R, 1 mM ATP, 1 h, room temperature, read-out: IC50 (nM) @T790M- C797S - L858R
T3 construct: purchased Carna Bio
Summary of the method: as §1

[6] = target: T4, EGFR L858R (Homo sapiens, UniProt P00533, L858R); test: Inhibition of EGFR L858R biochemical enzymatic activity (HTRF); details: 1 mM ATP, 1 h, room temperature, read-out: IC50 (nM) @L858R
T4 construct: purchased Carna Bio
Summary of the method: as §1

[7] = target: T5, EGFR Exon19Del (Homo sapiens, UniProt P00533, DEL746-750); test: Inhibition of EGFR Exon19Del biochemical enzymatic activity (HTRF); details: EGFR Del19, 1 mM ATP, 1 h, room temperature, read-out: IC50 @Del19
T5 construct: purchased Carna Bio
Summary of the method: as §1

[8] = target: T6, EGFR L858R/T790M (Homo sapiens, UniProt P00533, L858R/T790M); test: Inhibition of EGFR L858R/T790M biochemical enzymatic activity (HTRF); details: EGFR L858R-T790M, 1 mM ATP, 1 h, room temperature, read-out: IC50 (nM) @L858R-T790M
T6 construct: purchased Carna Bio
Summary of the method: as §1

[9] = target: T7, EGFR Exon19Del/T790M (Homo sapiens, UniProt P00533, DEL746-750/T790M); test: Inhibition of EGFR Exon19Del/T790M biochemical enzymatic activity (HTRF); details: EGFR Del19-T790M, 1 mM ATP, 1 h, room temperature, read-out: IC50 (nM) @Del19-T790M
T7 construct: purchased Carna Bio
Summary of the method: as §1

[10] = target: T8, EGFR (C797S L858R) (Homo sapiens, UniProt P00533, C797S/L858R); test: Inhibition of EGFR (C797S L858R) biochemical enzymatic activity (HTRF); details: EGFR L858-C797S, 1 mM ATP, 1 h, room temperature, read-out: IC50 (nM) @L858-C797S
T8 construct: purchased signalchem
Summary of the method: as §1

[11] = tested on: Ba/F3 cells expressing EGFR mutations; test: Cell proliferation assay, Ba/F3 cells expressing EGFR mutations (CellTiter-Glo, 72 hours); type: cell-based; details: CellTiter-Glo
Summary of the method: as §2

[12] = target: T9, EGFR[T790M/C797S/d746-750] (Homo sapiens, UniProt P00533, C797S/DEL746-750/T790M); test: Inhibition of EGFR[T790M/C797S/d746-750] biochemical enzymatic activity (HTRF); details: EGFR T790M-C797S-Del19, 1 mM ATP, 1 h, room temperature, read-out: IC50 (nM) @T790M - C797S - Del19
T9 construct: purchased Carna Bio
Summary of the method: as §1

[13] = Homo sapiens, A-431, A-431 cells
[14] = Mus musculus, BaF3, 72 h, BaF3 cells, EGFR DEL19-C797S, read-out: DEL19-C797S/BaF3 GI50
[15] = Mus musculus, BaF3, 72 h, BaF3 cells, EGFR DEL19-T790-C797S, read-out: DEL19-T790-C797S/BaF3 GI50
[16] = Mus musculus, BaF3, 72 h, BaF3 cells, EGFR L858R, read-out: L858R/BaF3 GI50
[17] = Mus musculus, BaF3, 72 h, BaF3 cells, EGFR L858R-C797S, read-out: L858R-C797S/BaF3 GI50
[18] = Mus musculus, BaF3, 72 h, BaF3 cells, EGFR L858R-T790-C797S, read-out: L858R-T790-C797S/BaF3 GI50
[19] = Mus musculus, BaF3, 72 h, BaF3 cells, EGFR L858R-T790M, read-out: L858R-T790M/BaF3 GI50
[20] = Mus musculus, BaF3, 72 h, EGFR DEL19-T790M, read-out: DEL19-T790M GI50
[21] = BaF3 cells, EGFR DEL19-C797S, read-out: DEL19-C797S/BaF3 GI50
[22] = BaF3 cells, EGFR DEL19-T790-C797S, read-out: DEL19-T790-C797S/BaF3 GI50
[23] = BaF3 cells, EGFR L858R, read-out: L858R/BaF3 GI50
[24] = BaF3 cells, EGFR L858R-C797S, read-out: L858R-C797S/BaF3 GI50
[25] = BaF3 cells, EGFR L858R-T790-C797S, read-out: L858R-T790-C797S/BaF3 GI50
[26] = BaF3 cells, EGFR L858R-T790M, read-out: L858R-T790M/BaF3 GI50
[27] = EGFR DEL19-T790M, read-out: DEL19-T790M GI50

T7 sequence (P00533 with tags, fused parts or gaps DEL746-750/T790M limits assumed): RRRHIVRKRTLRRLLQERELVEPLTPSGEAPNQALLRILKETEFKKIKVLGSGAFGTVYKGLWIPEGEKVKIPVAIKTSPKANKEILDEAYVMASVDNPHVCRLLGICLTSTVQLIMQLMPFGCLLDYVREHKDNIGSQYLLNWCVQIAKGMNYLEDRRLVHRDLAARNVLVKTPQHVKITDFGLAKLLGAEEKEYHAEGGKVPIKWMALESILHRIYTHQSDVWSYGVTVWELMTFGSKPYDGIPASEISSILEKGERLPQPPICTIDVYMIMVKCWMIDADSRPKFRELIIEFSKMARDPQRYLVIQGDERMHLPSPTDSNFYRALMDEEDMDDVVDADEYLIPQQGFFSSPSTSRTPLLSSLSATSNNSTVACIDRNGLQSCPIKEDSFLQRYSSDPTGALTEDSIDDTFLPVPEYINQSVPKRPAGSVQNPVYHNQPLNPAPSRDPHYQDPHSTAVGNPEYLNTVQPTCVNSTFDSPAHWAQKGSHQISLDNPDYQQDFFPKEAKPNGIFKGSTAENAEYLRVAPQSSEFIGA
T3 sequence (P00533 25-1210 T790M/C797S/L858R): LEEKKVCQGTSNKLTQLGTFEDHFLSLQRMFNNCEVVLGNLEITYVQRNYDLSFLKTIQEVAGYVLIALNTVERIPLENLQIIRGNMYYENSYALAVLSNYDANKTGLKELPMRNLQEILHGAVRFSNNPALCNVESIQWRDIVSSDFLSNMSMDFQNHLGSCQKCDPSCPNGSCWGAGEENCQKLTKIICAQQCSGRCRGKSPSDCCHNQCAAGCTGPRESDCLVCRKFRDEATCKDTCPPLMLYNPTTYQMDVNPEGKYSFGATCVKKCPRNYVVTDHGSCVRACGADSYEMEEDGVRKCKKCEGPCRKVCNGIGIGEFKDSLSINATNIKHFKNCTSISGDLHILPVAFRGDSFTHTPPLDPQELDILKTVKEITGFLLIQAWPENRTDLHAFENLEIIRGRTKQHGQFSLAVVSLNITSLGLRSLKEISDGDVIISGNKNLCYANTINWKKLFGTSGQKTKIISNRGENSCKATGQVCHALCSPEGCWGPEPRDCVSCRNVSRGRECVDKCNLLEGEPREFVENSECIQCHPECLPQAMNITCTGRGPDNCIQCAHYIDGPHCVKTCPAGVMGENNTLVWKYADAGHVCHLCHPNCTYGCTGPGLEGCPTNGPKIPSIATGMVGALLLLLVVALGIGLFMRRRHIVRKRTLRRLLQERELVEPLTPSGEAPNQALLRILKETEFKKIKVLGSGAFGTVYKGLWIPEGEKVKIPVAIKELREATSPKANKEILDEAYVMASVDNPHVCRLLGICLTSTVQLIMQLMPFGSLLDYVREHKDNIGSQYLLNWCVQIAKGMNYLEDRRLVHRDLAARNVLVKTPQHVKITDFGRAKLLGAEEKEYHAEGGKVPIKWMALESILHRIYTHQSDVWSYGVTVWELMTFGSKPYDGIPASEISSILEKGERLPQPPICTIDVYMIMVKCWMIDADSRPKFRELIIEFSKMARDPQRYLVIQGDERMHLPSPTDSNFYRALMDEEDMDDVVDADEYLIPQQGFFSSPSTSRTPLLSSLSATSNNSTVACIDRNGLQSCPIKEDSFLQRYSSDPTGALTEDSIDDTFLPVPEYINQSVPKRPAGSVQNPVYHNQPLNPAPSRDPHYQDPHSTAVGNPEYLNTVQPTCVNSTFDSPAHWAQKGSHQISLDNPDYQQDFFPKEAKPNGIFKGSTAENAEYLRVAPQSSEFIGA
T8 sequence (P00533 25-1210 C797S/L858R): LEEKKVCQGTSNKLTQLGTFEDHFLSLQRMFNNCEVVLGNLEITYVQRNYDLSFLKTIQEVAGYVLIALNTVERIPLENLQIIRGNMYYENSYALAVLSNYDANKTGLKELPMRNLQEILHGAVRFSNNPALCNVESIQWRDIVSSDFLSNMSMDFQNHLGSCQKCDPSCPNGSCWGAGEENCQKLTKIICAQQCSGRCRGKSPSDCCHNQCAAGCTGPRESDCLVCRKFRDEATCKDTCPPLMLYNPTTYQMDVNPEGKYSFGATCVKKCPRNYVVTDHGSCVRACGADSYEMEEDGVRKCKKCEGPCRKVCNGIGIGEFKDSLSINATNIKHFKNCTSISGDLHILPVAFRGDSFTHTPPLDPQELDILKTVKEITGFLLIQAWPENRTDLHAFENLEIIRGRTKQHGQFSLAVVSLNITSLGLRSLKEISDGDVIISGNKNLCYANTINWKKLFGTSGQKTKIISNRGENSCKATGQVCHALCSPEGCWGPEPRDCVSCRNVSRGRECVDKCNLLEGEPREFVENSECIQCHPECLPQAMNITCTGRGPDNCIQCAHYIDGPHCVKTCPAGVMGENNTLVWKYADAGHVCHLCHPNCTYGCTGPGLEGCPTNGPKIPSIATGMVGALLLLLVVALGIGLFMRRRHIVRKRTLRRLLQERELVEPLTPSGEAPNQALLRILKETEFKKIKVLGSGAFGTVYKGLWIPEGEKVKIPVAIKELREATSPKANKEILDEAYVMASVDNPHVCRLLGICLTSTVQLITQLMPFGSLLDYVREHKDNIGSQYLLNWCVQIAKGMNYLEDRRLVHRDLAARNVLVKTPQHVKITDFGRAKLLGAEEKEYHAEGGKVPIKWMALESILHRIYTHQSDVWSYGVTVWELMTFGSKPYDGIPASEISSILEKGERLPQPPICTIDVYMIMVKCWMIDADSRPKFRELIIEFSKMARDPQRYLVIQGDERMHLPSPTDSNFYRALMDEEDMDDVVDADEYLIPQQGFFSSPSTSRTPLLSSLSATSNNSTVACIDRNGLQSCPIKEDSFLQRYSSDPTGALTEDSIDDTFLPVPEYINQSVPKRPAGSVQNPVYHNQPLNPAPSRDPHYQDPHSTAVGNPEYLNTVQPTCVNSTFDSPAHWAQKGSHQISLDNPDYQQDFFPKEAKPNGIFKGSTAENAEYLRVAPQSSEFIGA
T6 sequence (P00533 25-1210 T790M/L858R): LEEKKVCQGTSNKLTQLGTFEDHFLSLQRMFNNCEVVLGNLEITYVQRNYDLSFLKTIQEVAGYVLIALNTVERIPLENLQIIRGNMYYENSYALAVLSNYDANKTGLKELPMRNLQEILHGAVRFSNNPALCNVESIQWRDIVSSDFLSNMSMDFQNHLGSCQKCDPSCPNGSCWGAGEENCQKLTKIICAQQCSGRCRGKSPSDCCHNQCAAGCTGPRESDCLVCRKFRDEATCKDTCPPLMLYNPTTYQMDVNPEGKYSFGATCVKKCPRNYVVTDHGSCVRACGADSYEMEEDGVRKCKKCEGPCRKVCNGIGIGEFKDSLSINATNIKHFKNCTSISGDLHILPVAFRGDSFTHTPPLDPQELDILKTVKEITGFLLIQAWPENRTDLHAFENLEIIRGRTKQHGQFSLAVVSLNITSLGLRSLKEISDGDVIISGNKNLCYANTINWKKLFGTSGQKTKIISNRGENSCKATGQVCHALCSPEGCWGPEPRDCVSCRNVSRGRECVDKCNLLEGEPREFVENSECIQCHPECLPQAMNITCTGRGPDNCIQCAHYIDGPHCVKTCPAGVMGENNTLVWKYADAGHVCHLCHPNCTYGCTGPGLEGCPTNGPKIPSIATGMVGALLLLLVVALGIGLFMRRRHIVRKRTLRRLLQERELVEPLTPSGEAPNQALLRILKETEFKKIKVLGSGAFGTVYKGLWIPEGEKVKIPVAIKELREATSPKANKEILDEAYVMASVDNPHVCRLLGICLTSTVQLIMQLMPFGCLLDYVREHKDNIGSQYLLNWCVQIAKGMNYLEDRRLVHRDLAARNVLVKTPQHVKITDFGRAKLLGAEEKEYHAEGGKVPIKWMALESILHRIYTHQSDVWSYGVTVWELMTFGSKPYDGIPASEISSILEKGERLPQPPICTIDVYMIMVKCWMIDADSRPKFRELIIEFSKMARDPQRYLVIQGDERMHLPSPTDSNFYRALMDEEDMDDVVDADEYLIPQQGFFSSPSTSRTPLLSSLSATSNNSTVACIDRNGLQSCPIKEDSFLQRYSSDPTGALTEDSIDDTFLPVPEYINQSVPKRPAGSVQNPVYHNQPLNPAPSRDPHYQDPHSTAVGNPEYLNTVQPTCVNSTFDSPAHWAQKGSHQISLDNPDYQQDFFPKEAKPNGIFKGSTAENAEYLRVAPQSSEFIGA
T5 sequence (P00533 with tags, fused parts or gaps DEL746-750 limits assumed): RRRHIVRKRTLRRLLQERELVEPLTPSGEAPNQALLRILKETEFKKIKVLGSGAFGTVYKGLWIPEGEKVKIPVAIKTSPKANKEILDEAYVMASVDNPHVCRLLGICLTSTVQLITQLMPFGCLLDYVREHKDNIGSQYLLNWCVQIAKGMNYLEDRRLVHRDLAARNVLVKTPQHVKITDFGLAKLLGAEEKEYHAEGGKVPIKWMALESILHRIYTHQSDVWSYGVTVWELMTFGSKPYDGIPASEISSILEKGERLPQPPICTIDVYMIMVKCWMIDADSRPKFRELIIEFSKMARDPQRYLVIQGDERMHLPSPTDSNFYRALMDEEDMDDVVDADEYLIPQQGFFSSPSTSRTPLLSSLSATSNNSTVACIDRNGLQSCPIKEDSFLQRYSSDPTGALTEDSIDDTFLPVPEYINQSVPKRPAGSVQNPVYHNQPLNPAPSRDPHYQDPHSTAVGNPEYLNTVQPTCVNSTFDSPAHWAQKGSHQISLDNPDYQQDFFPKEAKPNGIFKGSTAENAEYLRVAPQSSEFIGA

Row | SMILES | IC50 [1] | GI50 ([2]; Homo sapiens, PC-9, 72 h) | GI50 [3, 13] | IC50 [4] | IC50 [5] | IC50 [6] | pIC50 [7] | IC50 [8] | IC50 [9] | IC50 [10] | IC50 [12] | GI50 [2] | GI50 ([3]; A-431 cells) | GI50 [11, 21] | GI50 [11, 22] | GI50 [11, 23] | GI50 [11, 24] | GI50 [11, 25] | GI50 [11, 26] | GI50 [11, 27] | further results
1 | CCN1CCOc2c(cnn2C)-c2cc(cn(C)c2=O)C(=O)Nc2nc3ccccc3n2C(C)C1 (stereo not drawn) [Example A6, 10-Ethyl-5,12,26-trimethyl-7-oxa-4,5,10,13,20,22,26-heptaazapentacyclo[22.3.1.0^{2,6}.0^{13,21}.0^{14,19}]octacosa-1(28),2(6),3,14,16,18,20,24-octaene-23,27-dione] | 1870 nM | 0.403 µM | 1.78 µM | > 5000 nM | > 5000 nM | > 5000 nM | 5.78 | > 5000 nM | 1530 nM | > 5000 nM | 1230 nM |  |  |  |  |  |  |  |  |  | GI50 [11, 14]: 0.204 µM; GI50 [11, 15]: 1.05 µM; GI50 [11, 16]: 1.31 µM; GI50 [11, 17]: 0.919 µM; GI50 [11, 18]: 1.54 µM; GI50 [11, 19]: 0.795 µM; GI50 [11, 20]: 0.968 µM
2 | C[C@@H]1CCCOc2c(cnn2C)-c2cc(cn(C)c2=O)C(=O)Nc2nc3ccc(N4CCN(C(=O)OC(C)(C)C)CC4)cc3n2C1 [Example A54] | 41 nM | 0.245 µM | 1.91 µM | > 5000 nM | 10 nM | 3040 nM | 6.93 | 213 nM | 31 nM | 887 nM | 31 nM |  |  |  |  |  |  |  |  |  | GI50 [11, 14]: 0.032 µM; GI50 [11, 15]: 0.104 µM; GI50 [11, 16]: 0.192 µM; GI50 [11, 17]: 0.188 µM; GI50 [11, 18]: 0.228 µM; GI50 [11, 19]: 0.288 µM; GI50 [11, 20]: 0.153 µM
3 | CN1CCN(c2ccc3nc4n(c3c2)CCN(CC(F)(F)F)CCOc2c(cnn2C2CC2)-c2cc(cn(C)c2=O)C(=O)N4)CC1 [Example A2, 5-Cyclopropyl-26-methyl-16-(4-methylpiperazin-1-yl)-10-(2,2,2-trifluoroethyl)-7-oxa-4,5,10,13,20,22,26-heptaazapentacyclo[22.3.1.0^{2,6}.0^{13,21}.0^{14,19}]octacosa-1(28),2(6),3,14,16,18,20,24-octaene-23,27-dione] | 3.7 nM | 0.08 µM | 1.01 µM | 52 nM | 3.4 nM | 5 nM | 8.46 | 4.3 nM | 4.8 nM | 4.1 nM | 3.7 nM |  |  |  |  |  |  |  |  |  | GI50 [11, 14]: 0.0058 µM; GI50 [11, 15]: 0.03 µM; GI50 [11, 16]: 0.0037 µM; GI50 [11, 17]: 0.0052 µM; GI50 [11, 18]: 0.0067 µM; GI50 [11, 19]: 0.0055 µM; GI50 [11, 20]: 0.033 µM
4 | Cn1ncc2c1OCCN1CC3CCC(C3)(C1)n1c(nc3ccc(N4CC(N5CCOCC5)C4)cc31)NC(=O)c1cc-2c(=O)n(C)c1 (single isomer, unassigned) [Example A69B] | 1.2 nM |  |  | 291 nM | 3 nM | 22 nM | 8.54 | 2.8 nM | 2 nM | 14 nM | 2.2 nM | 0.0049 µM | 0.776 µM | 0.00062 µM | 0.0013 µM | 0.0029 µM | 0.0036 µM | 0.002 µM | 0.01 µM | 0.002 µM | 
5 | CC(C)N1CCN(c2ccc3nc4n(c3c2)C23CCC(CN(CCOc5c(cnn5C)-c5cc(cn(C)c5=O)C(=O)N4)C2)C3)CC1 (single isomer, unassigned) [Example A108B] | 0.77 nM |  |  | 7.7 nM | 1.1 nM | 1.9 nM | 9.00 | 1.3 nM | 1.7 nM | 1.5 nM | 1.4 nM | 0.0046 µM | 0.32 µM | 0.00067 µM | 0.001 µM | 0.001 µM | 0.0011 µM | 0.0012 µM | 0.0039 µM | 0.0013 µM | 
6 | CN(C)C1CCN(c2ccc3nc4n(c3c2)C23CCC(CN(CCOc5c(cnn5C)-c5cc(cn(C)c5=O)C(=O)N4)C2)C3)CC1 (single isomer, unassigned) [Example A64A] | 1920 nM |  |  | > 5000 nM | > 5000 nM | > 5000 nM | 5.67 | > 5000 nM | > 5000 nM | > 5000 nM | 2100 nM | 0.546 µM | 6.13 µM | 0.215 µM | 0.513 µM | 0.599 µM | 0.443 µM | 0.381 µM | 2.1 µM | 0.755 µM | 
7 | CN1CCC2(C1)CN(c1ccc3nc4n(c3c1)C13CCC(CN(CCOc5c(cnn5C)-c5cc(cn(C)c5=O)C(=O)N4)C1)C3)C2 (single isomer, unassigned) [Example A78A] | 494 nM |  |  | > 5000 nM | > 5000 nM | 2040 nM | 6.29 | > 5000 nM | > 5000 nM | > 5000 nM | 3750 nM | 0.249 µM | 3.05 µM | 0.102 µM | 0.269 µM | 0.329 µM | 0.157 µM | 0.402 µM | 0.38 µM | 0.25 µM | 
8 | CN1CCN(c2ccc3c(c2)nc2n3C34CCC(CN(CCOc5c(cnn5C)-c5cc(cn(C)c5=O)C(=O)N2)C3)C4)CC1 (stereo not drawn) [Example A60B, 15,21-dimethyl-6-(4-methylpiperazin-1-yl)-23-oxa-2,9,11,15,20,21,26-heptaazaheptacyclo[24.4.1.1^{1,28}.1^{13,17}.0^{2,10}.0^{3,8}.0^{18,22}]tritriaconta-3,5,7,9,13,17(33),18(22),19-octaene-12,16-dione] | 1.7 nM |  |  | 4480 nM | 44 nM | 135 nM | 8.49 | 49 nM | 0.82 nM | 65 nM | 0.81 nM | 0.015 µM | 1.34 µM | 0.0014 µM | 0.0044 µM | 0.021 µM | 0.015 µM | 0.0084 µM | 0.053 µM | 0.0069 µM | 

Source: US20260365670A1, “EGFR INHIBITORS AND USES THEREOF” (DIZAL (JIANGSU) PHARMACEUTICAL CO., LTD., priority 2022, published 2026)
